In article PMC13276840, “Deacetylation of β‑Mannans by Two Complementary Carbohydrate Esterases from the Human Gut Microbe Bacteroides cellulosilyticus” (Biochemistry, 2026):

How the values were obtained:
[1] = biological target: T1, BcCE7 (Bacteroides cellulosilyticus, UniProt E2NDM1); assay: transacetylation, MALDI-ToF MS; format: biochemical; settings: acyl acceptor with vinyl acetate donor, […] enzyme, […] sodium phosphate pH […] °C
T1 construct: gene BACCELL_02381; N-terminal signal peptide removed, His tag (removal not mentioned), pET28a(+), synthetic gene, E. coli BL21 STAR
T1 sequence (E2NDM1 7-414 limits assumed): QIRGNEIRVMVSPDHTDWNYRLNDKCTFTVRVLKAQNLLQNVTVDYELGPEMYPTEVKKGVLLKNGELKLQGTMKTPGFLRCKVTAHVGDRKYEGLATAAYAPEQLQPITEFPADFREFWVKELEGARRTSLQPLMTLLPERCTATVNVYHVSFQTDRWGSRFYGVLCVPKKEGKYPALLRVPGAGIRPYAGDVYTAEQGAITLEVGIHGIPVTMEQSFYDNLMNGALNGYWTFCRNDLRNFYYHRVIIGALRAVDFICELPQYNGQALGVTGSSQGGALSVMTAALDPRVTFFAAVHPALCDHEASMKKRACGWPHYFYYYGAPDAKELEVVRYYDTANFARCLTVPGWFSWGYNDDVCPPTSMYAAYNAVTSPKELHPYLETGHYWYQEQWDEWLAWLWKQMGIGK

[2] = biological target: T2, BcCE25 (Bacteroides cellulosilyticus, UniProt E2NCW7); assay: transacetylation, MALDI-ToF MS and NMR; format: biochemical; settings: acyl acceptor with vinyl acetate donor, 200 nM enzyme, 10 mM sodium phosphate pH 5.9, 25 °C
T2 construct: gene BACCELL_02125; N-terminal signal peptide removed, His tag (removal not mentioned), pET30a(+), synthetic gene, E. coli BL21 STAR
T2 sequence (E2NCW7 20-263): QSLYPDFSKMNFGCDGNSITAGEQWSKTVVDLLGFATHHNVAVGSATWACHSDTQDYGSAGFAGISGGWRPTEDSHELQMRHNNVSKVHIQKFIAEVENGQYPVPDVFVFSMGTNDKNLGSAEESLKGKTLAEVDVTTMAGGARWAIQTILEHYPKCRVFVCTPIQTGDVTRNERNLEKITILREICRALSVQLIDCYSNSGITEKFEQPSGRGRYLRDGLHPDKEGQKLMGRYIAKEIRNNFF

## OC[C@H]1O[C@@H](O[C@H]2[C@H](O)[C@H](O)[C@H](O[C@H]3[C@H](O)[C@H](O)[C@H](O[C@H]4[C@H](O)[C@H](O)C(O)O[C@@H]4CO)O[C@@H]3CO)O[C@@H]2CO)[C@@H](O)[C@@H](O)[C@@H]1O (some centres unmarked) [mannotetraose]
[1]
  transacetylation, MALDI-ToF MS: On mannotetraose, BcCE7 transferred mainly one acetyl group
[2]
  transacetylation, MALDI-ToF MS and NMR: BcCE25 transferred up to three acetylations
